Source: patent US8518890B2, “Remedies for sex hormone dependent disease” (Takeda Pharmaceutical Company Limited, priority 2002, dated 2013)

Columns and labels:
Assay in all cases: Effect on cell growth in the presence of androgen (cell count)
Type in all cases: cell-based
[1] = system: LNCaP-hr cells (highly androgen sensitive cell line); conditions: LNCaP-hr (cultured 60 weeks in androgen-free broth), 0.01 to 10 ng/mL testosterone, cells counted 3 days after addition, FIG. 1
[2] = system: MDA PCa 2b-hr cells (highly androgen sensitive cell line); conditions: MDA PCa 2b-hr (cultured 61 weeks in androgen-free broth), 0.1 to 100 ng/mL testosterone, cells counted 4 days after addition, FIG. 2
[3] = system: LNCaP-FGC cells; conditions: 0.01 to 10 ng/mL testosterone, cells counted 3 days after addition, FIG. 1
Procedure: (§1) (Method) LNCaP-hr (cultured for 60 weeks in culture broth free of androgen) and LNCaP-FGC cells were plated on a 24 well plate at 40000 cells/mL/well, 0.01 to 10 ng/mL of testosterone was added the next day, and the cells were counted 3 days after the addition. In addition, MDA PCa 2b-hr (cultured for 61 weeks in culture broth free of androgen) and MDA PCa 2b cells were plated on a 24 well plate at 40000 cells/mL/well, 0.1 to 100 ng/mL of testosterone was added the next day, and the cells were counted 4 days after the addition. (Results) The growth of LNCaP-FGC and MDA PCa 2b was promoted by testosterone [FIGS. 1 and 2]. In contrast, the growth of LNCaP-hr and MDA PCa 2b-hr cells were suppressed by testosterone [FIGS. 1 and 2].

[4] = system: MDA PCa 2b cells; conditions: 0.1 to 100 ng/mL testosterone, cells counted 4 days after addition, FIG. 2
Procedure: as §1

## C[C@]12CC[C@H]3[C@@H](CCC4=CC(=O)CC[C@@]43C)[C@@H]1CC[C@@H]2O [testosterone]
[1]
  cell growth: suppressed
[2]
  cell growth: suppressed
[3]
  cell growth: promoted
[4]
  cell growth: promoted
